Here are results for 19 compounds from patent publication US20230357179A1, “RAF KINASE INHIBITORS AND METHODS OF USE THEREOF” (Deciphera Pharmaceuticals, LLC, priority 2021, published 2023).

For test [1], the target named is T1, C-Raf kinase (Homo sapiens, UniProt P04049, Y340D/Y341D).
T1 construct: Y340D,; GST (N); purchased Sigma
As to the kind of experiment: Biochemical assay for C-Raf.1 (coupled pyruvate kinase/lactate dehydrogenase). The following applies: read-out: CRAF.1 IC50. The essentials:
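NADH depletion at 340 nm monitored continuously for 6 h at 30° C, with rates taken over 4–5 h. The coupled pyruvate kinase/lactate dehydrogenase reaction used 1 mM ATP, 30.1 nM MEK substrate and 0.43 nM kinase at pH 7.5. IC50 was fitted sigmoidally from percent inhibition of serially diluted compound.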

For test [2], the system named is A375 cells. As to the kind of experiment: A375 cell proliferation assay (1), resazurin, 96-well. In kind it is cell-based. The following applies: Homo sapiens, A-375, inhibition of cell proliferation. The method in brief:
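Viability was read by resazurin fluorescence at 540 nm excitation and 600 nm emission, using a 440 μM solution added for 5–6 h at the end of culture. IC50 came from the curve fit.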

The target of test [3] is T2, B-Raf (V600E) kinase (Homo sapiens, UniProt P15056, V600E).
T2 construct: B-Raf (V600E) residues 416-766 with a; GST (N); purchased SignalChem
T2 sequence (P15056 416-766 V600E): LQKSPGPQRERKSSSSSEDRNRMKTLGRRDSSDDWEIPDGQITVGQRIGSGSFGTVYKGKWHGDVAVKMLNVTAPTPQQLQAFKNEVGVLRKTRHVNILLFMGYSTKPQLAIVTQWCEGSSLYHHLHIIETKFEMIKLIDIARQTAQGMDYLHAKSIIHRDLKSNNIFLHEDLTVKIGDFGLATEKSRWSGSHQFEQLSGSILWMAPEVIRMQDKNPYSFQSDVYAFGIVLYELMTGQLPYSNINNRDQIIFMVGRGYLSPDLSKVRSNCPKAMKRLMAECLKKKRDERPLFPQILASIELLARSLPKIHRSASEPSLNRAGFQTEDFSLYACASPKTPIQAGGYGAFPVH
As to the kind of experiment: Biochemical assay for B-Raf (V600E).1 (coupled pyruvate kinase/lactate dehydrogenase). The following applies: read-out: BRAF V600E.1 IC50. The method in brief: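 IC50 came from four-parameter sigmoidal fits of percent inhibition, using reaction rates over 3-4 h. Continuous A340 reading (6 h, 30 °C) of a pyruvate kinase/lactate dehydrogenase-coupled reaction: B-Raf V600E 0.03 nM, MEK 30.1 nM, ATP 1 mM, Tris pH 7.5, 1% DMSO.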

T1 sequence (P04049 307-648 Y340D/Y341D): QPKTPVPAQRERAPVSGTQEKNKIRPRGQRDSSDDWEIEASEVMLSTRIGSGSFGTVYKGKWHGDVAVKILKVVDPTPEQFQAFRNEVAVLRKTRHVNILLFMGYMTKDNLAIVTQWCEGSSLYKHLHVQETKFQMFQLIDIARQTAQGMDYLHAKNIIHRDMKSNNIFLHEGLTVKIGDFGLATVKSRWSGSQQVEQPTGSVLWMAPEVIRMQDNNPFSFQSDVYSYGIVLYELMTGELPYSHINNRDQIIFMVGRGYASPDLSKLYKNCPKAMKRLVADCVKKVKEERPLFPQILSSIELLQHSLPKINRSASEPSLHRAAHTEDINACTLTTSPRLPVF

Turning to `COC(=O)Nc1cc(-c2cnnc(-c3cc(NC(=O)N4CCC(C(C)(C)C)C4)ccc3C)c2)ccn1` (stereo not drawn) [Example 185], the IC50 in test [1] is at most 100 nM; in test [2], 100 to 500 nM; in test [3], at most 100 nM.

Turning to `COC(=O)Nc1cc(-c2cc(-c3cc(NC(=O)NCCC4(C)CC4)ccc3F)cc(OCCO)n2)ccn1` [Example 187], the figures for the IC50 in test [1], in test [2] and in test [3] were at most 100 nM, 1000 to 10000 nM and 100 to 500 nM, respectively.

As for `Cc1ccc(NC(=O)N2CC[C@@H](C)C2)cc1-c1cncc(-c2cc(NC(=O)C3CC3)ncn2)c1` [Example 219], the IC50 in test [1] is at most 100 nM; in test [2], 500 to 1000 nM; in test [3], 100 to 500 nM.

`CNC(=O)c1cc(-c2cnnc(-c3cc(NC(=O)N4CC[C@@H](OC)C4)ccc3C)c2)ccn1` [Example 181]: the IC50 in test [1] was above 1000 nM; in test [2] it was 1000 to 10000 nM; in test [3], 100 to 500 nM.

`COC(=O)Nc1cc(-c2nccc(-c3cc(NC(=O)N4CCC(C(F)(F)F)C4)ccc3C)n2)ccn1` (stereo not drawn) [Example 193]: the IC50 is at most 100 nM in test [1], 1000 to 10000 nM in test [2] and 100 to 500 nM in test [3].

On to `CNC(=O)c1cc(-c2cnnc(-c3cc(NC(=O)N4CCC(C(C)(C)C)C4)cnc3C)c2)ccn1` (stereo not drawn) [Example 184], for which the IC50 in test [1] was 500 to 1000 nM; in test [2], 1000 to 10000 nM; in test [3] it was at most 100 nM.

For the compound `COC(=O)Nc1cc(-c2cncc(-c3cc(NC(=O)N4CC[C@H](C(F)(F)F)C4)ccc3C)c2)ccn1` [Example 211], the IC50 is at most 100 nM in test [1], 500 to 1000 nM in test [2] and at most 100 nM in test [3].

Regarding `Cc1ccc(NC(=O)N2CCC(CC(F)(F)F)C2)cc1-c1cncc(-c2cc(N)ncn2)c1` (stereo not drawn) [Example 207], the IC50 was at most 100 nM in test [1], 1000 to 10000 nM in test [2] and 500 to 1000 nM in test [3].

Consider `Cc1ccc(NC(=O)N2CCC(CC(F)(F)F)C2)cc1-c1cncc(-c2cc(NC(=O)C3CC3)ncn2)c1` (stereo not drawn) [Example 194], for which the IC50 in test [1], in test [2] and in test [3] was at most 100 nM each time.

For the compound `COC(=O)Nc1cc(-c2cnnc(-c3cc(NC(=O)N4CCC(CC(F)(F)F)C4)ccc3C)c2)ccn1` (stereo not drawn) [Example 186], the IC50 was at most 100 nM in test [1], 1000 to 10000 nM in test [2] and at most 100 nM in test [3].

Consider `COC(C)(C)CCNC(=O)Nc1cc(-c2cnnc(-c3ccnc(NC(=O)C4CC4)c3)c2)c(C)cc1F` [Example 173], for which the IC50 was at most 100 nM in test [1], 500 to 1000 nM in test [2] and at most 100 nM in test [3].

In the case of `CNC(=O)c1cc(-c2cnnc(-c3cc(NC(=O)N4CC[C@@H](OC(F)(F)F)C4)ccc3C)c2)ccn1` [Example 182], the IC50 in test [1] was 100 to 500 nM; in test [2], 1000 to 10000 nM; in test [3] it was at most 100 nM.

As to `Cc1ccc(NC(=O)N2CCC(F)(F)C2)cc1-c1cncc(-c2cc(NC(=O)C3CC3)ncn2)c1` [Example 209], the figures for the IC50 in test [1], in test [2] and in test [3] were at most 100 nM, 1000 to 10000 nM and 100 to 500 nM, respectively.

Take `COC(=O)Nc1cc(-c2cncc(-c3cc(NC(=O)N4CCCCCC4)ccc3C)c2)ccn1` [Example 202]: the values for the IC50 in test [1], in test [2] and in test [3] were 100 to 500 nM, 1000 to 10000 nM and 100 to 500 nM, respectively.

As for `Cc1ccc(NC(=O)N2CC[C@H](C(F)(F)F)C2)cc1-c1cncc(-c2ccnc(NC(=O)C3CC3)c2)c1` [Example 197], the IC50 in test [1] is at most 100 nM; in test [2], 100 to 500 nM; in test [3] it was at most 100 nM.

As for `COC(=O)Nc1cc(-c2cncc(-c3cc(NC(=O)N4CCCCC4)ccc3C)c2)ccn1` [Example 208], the IC50 is 100 to 500 nM in test [1], 500 to 1000 nM in test [2] and above 1000 nM in test [3].

For `COC(=O)Nc1cc(-c2cnnc(-c3cc(NC(=O)N4CCC(C(C)(C)O)C4)ccc3C)c2)ccn1` (stereo not drawn) [Example 206], the IC50 in test [1] is 100 to 500 nM; in test [2], 1000 to 10000 nM; in test [3], above 1000 nM.

Take `CNC(=O)c1cc(-c2cnnc(-c3cc(NC(=O)N4CCC(C(C)(C)C)C4)ccc3C)c2)ccn1` (stereo not drawn) [Example 180]: the values for the IC50 in test [1], in test [2] and in test [3] were 100 to 500 nM, 100 to 500 nM and at most 100 nM, respectively.

With `Cc1ccc(NC(=O)N2CC[C@@H](C(F)(F)F)C2)cc1-c1cncc(-c2cc(NC(=O)C3CC3)ncn2)c1` [Example 210], the IC50 in test [1] was at most 100 nM; in test [2] it was 100 to 500 nM; in test [3], at most 100 nM.
